This note sets out measurements from US6642225B2, “Diazacycloalkanedione derivatives” (Novartis AG, priority 2000, dated 2003).

For one test, the target named is T1, human LFA-1 (Homo sapiens, UniProt P20701).
T1 construct: endogenous in cells; host or cells: JY cells (human lymphoblastoid B cell line)
In words: Cell free assay: binding of soluble human ICAM-1 to immobilized human LFA-1.

Another test relates to carrageenan paw swelling. The test can be described thus: Rat carrageenan edema model. Format: in vivo, OFA rats. Particulars: about 0.3 to 30 mg/kg p.o. As to the method:
iii) Rat Carrageenan Edema Model Male OFA rats are treated orally with the compound to be tested or vehicle (saline). One to three hours later (0 hours) the rats receive a 100 μl intra-plantar injection of a 1% w/v carrageenan solution in 0.9% saline in the hind paw and the diameter of the paw is measured by means of a micro-calliper. The paw diameter measurements are repeated at times +3 and +5 hours after injection of the carrageenan.

Test [1] deals with mBSA antigen-induced arthritis. In words: Mouse antigen-induced arthritis model. Format: in vivo, OFA-1 mice. Particulars: about 0.3 to 30 mg/kg p.o. As to the method: iv) Mouse Antigen-induced Arthritis Model The test for rheumatoid arthritis is carried out by a modification of that described by Van de Loo et al., Arthritis Rheum. 1995; 35:164-172, e.g., as follows: Female OFA-1 mice are sensitised intradermally on the back at two sites to methylated bovine serum albumin (mBSA) homogenised 1:1 with complete Freund's adjuvant on days −21 and −14 (0.1 ml containing 1 mg/ml mBSA). On day 0, the right knee receives 10 μl of 10 mg/ml mBSA in 5% glucose solution (antigen injected knee), while the left knee receives 10 μl of 5% glucose solution alone (vehicle injected knee). The diameters of the left and right knees are then measured using calipers immediately after the intra-articular injections and again on days 2, 4, 7, 9, 11 and 14. […] Right knee swelling is calculated as a ratio of left knee swelling, and the R/L knee swelling ratio plotted against time to give Area Under the Curve (AUC) graphs for control and treatment groups. The percentage inhibition of the individual treatment group AUCs are calculated vs the control group AUC (0% inhibition) using an Excel spreadsheet. […] After staining, the slides are number coded as left knee/right knee pairs from each animal and scored in a blinded fashion for inflammatory cell infiltrate/hyperplasia, joint damage/erosions and cartilage proteoglycan loss.

T1 sequence (P20701 26-1170): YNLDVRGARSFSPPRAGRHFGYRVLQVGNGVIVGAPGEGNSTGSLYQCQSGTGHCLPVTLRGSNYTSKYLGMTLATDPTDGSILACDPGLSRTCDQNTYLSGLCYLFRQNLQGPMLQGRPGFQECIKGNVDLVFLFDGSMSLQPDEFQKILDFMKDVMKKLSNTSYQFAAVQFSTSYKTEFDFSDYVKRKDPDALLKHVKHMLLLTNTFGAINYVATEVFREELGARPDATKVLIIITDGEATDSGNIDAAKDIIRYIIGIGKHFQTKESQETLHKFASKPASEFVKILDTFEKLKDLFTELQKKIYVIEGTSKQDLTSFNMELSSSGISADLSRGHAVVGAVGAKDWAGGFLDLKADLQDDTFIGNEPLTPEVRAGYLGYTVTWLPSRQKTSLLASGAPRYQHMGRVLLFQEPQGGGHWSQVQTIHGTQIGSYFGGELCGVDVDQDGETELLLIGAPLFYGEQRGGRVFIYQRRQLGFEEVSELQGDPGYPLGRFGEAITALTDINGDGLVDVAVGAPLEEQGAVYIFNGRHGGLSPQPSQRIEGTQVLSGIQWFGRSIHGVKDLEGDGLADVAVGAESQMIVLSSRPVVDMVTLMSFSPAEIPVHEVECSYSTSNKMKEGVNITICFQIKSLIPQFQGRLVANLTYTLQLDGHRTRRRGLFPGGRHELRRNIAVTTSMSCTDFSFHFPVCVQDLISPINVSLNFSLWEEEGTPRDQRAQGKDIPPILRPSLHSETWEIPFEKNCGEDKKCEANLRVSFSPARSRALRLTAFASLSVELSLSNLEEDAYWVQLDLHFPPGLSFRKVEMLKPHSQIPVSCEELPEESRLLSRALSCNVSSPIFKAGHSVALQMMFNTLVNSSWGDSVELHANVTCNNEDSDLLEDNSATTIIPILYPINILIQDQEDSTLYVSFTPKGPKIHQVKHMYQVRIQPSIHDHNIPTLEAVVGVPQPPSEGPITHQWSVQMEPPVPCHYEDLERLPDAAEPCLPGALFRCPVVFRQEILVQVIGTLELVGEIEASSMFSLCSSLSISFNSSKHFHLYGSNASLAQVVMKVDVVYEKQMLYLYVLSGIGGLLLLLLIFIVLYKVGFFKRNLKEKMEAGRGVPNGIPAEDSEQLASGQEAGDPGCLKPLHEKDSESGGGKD
T1 sequence (P05107 23-769 partner): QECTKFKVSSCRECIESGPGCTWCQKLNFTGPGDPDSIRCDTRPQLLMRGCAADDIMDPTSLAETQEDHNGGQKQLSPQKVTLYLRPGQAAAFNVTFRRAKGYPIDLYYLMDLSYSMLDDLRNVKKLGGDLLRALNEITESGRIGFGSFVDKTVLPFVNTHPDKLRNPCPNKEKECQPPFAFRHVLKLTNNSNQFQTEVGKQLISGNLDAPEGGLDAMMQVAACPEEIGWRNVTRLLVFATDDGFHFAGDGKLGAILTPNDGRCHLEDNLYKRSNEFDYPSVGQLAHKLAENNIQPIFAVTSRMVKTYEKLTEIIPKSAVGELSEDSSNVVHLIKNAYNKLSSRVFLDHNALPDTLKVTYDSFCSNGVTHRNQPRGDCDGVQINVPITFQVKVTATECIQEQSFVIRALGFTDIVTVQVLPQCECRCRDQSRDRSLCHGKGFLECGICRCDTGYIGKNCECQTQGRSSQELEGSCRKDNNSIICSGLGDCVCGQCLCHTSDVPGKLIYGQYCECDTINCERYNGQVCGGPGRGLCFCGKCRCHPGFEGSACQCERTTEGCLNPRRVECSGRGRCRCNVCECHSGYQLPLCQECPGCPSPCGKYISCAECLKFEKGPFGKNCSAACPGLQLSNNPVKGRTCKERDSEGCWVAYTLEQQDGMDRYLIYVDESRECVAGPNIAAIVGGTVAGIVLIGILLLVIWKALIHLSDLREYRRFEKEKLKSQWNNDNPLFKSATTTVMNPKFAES
Description for human LFA-1: A. In Vitro: Cell Free Assay
The assay measures the binding of soluble human ICAM-1 to immobilized human LFA-1. LFA-1 is purified from JY cells, a human lymphoblastoid B cell-line, by immunoaffinity chromatography as described by Dustin et al. (J. Immunol. 148, 2654-2663, 1992). ICAM-1 mouse Cκ fusion protein (ICAM-1) is produced using the baculovirus system as described by Weitz-Schmidt et al. (Anal. Biochem.238, 184-190, 1996).
Purified LFA-1 is diluted 1:20 in phosphate buffered saline (PBS) containing 2 mM MgCl2, pH 7.4 and coated onto microtitre plates (Nunc) at 37° C. for 3 h. Plates are blocked with 1% heat-treated BSA in PBS for 2 hours at 37° C. followed by a washing step using PBS, 2 mM MgCl2, 1% fetal calf serum, pH 7.4 (assay buffer). Compounds dissolved at 10 mM in DMSO are diluted in assay buffer and added to the plates. Biotinylated recombinant ICAM-1 in assay buffer (6 μg/ml) is added and allowed to bind at 37° C. for one hour. After incubation, wells are washed with assay buffer. Streptavidin-peroxidase diluted 1:5000 in assay buffer is added and incubated for 45 min at 37° C. Plates are then washed with assay buffer and 2,2′-azino-bis(3-ethylbenzothiazoline-6 sulfonic acid) diammonium salt substrate solution is added to each well. The reaction is stopped after 20 min and bound ICAM-1 is determined by measuring the optical density at 405 nm in a microplate reader.

Take `CNC(=O)[C@H](Cc1ccc2ccccc2c1)N1CCC(=O)N(Cc2cnc3ccccc3c2)[C@@H](CC(C)C)C1=O` [Example 1, 1H-1,4-Diazepine-1-acetamide, hexahydro-N-methyl-3-(2-methylpropyl)-α-[(2-naphthalenyl)methyl]-2,5-dioxo-4-[(3-quinolinyl)methyl]-, (αS,3S)-]: the 50% inhibitory concentration (IC50) on human LFA-1 was around 30 nM. For the same molecule, in the test on carrageenan paw swelling, the “inhibition of paw swelling” value is listed as “inhibits paw swelling”. In addition, in test [1], the “inhibition of knee swelling” value is “inhibits knee swelling”. Also, the “histological damage to the knee” value in test [1] (day 14 histology) is listed as “significantly reduces the histological damage to the knee”.
